# Legend:
# [1] = target: T1, rat B1R (bradykinin receptor 1) (Rattus norvegicus, UniProt P97583); assay: FLIPR Ca2+ assay (Fluo-4) on CHO K1 cells stably transfected with the B1R gene of the rat (rB1R cells): % inhibition at 10 μM / IC50, agonist Des-Arg9-bradykinin; assay type: cell-based; conditions: for inhibition at 10 µM: CHO-K1, rat B1R
# T1 construct: expressed in transfected cells; host or cells: CHO K1 cells
# T1 sequence (P97583 1-337): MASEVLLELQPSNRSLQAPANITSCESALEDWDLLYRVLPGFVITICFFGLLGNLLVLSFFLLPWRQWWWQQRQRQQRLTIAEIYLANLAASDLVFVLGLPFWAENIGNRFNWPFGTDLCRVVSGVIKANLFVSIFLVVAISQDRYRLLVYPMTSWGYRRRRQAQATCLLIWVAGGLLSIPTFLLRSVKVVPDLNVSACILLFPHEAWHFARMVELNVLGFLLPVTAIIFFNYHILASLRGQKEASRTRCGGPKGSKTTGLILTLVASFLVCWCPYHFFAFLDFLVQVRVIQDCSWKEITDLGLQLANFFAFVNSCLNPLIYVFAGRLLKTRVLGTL
# Summary of the method: (§1)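 Using a two-addition FLIPR protocol, compound (10 μM for % values; concentration series for IC50) was preincubated 10–20 min with Fluo-4-loaded B1R-expressing CHO K1 cells before EC80 agonist challenge. Suppression of Ca2+ inflow, read as peak fluorescence, is expressed relative to maximum achievable inhibition; duplicate/triplicate, ≥2 independent experiments.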
# [2] = target: T2, human B1R (bradykinin receptor 1) (Homo sapiens, UniProt P46663); assay: FLIPR Ca2+ assay (Fluo-4) on CHO K1 cells stably transfected with the human B1R gene (hB1R cells): % inhibition at 10 μM / IC50, agonist Lys-Des-Arg9-bradykinin; assay type: cell-based; conditions: for inhibition at 10 µM: CHO-K1, human B1R
# T2 construct: expressed in transfected cells; host or cells: CHO K1 cells
# T2 sequence (P46663 1-353): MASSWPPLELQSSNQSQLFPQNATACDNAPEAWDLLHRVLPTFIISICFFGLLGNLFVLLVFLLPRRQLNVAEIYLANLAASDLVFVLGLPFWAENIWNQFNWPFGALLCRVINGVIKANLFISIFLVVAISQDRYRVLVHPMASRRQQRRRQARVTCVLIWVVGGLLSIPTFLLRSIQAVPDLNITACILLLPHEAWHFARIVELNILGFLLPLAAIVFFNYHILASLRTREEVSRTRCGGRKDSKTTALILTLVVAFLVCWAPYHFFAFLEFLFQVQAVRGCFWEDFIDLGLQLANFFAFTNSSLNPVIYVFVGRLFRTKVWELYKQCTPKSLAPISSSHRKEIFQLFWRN
# Summary of the method: as §1
SMILES,inhibition at 10 µM [1] [%],inhibition at 10 µM [2] [%],also measured
"Cc1cccc(C)c1C(=O)NC1CCc2ccc(C(=O)N3CCC4(CC3)CCN(c3ccc(C(F)(F)F)cc3)CC4)cc21 (stereo not drawn) [IND_CC-307, 2,6-Dimethyl-N-[6-[9-[4-(trifluoromethyl)-phenyl]-3,9-diazaspiro[5.5]undecane-3-carbonyl]-2,3-dihydro-1H-inden-1-yl]-benzamide]",103,14,–
"O=C(c1ccc2c(c1)CC[C@@H]2N1Cc2cccc(Cl)c2C1=O)N1CCC2(CC1)CCN(c1ccncc1)CC2 [Example H-158, 7-Chloro-2-[(1S)-5-(9-pyridin-4-yl-3,9-diazaspiro[5.5]undecane-3-carbonyl)-2,3-dihydro-1H-inden-1-yl]-2,3-dihydro-isoindol-1-one]",100,92,–
"O=C(NC1CCc2ccc(C(=O)N3CCC4(CC3)CCN(c3ccncc3)C4)cc21)c1cccc(C(F)(F)F)c1Cl (stereo not drawn) [IND_CC-233, 2-Chloro-N-[6-(2-pyridin-4-yl-2,8-diazaspiro[4.5]decane-8-carbonyl)-2,3-dihydro-1H-inden-1-yl]-3-(trifluoromethyl)-benzamide]",98,86,–
O=C(N[C@H]1CCc2cc(C(=O)N3CCC4(CCN(c5ccncc5)CC4)C3)ccc21)c1ccccc1Cl [Example H-155],100,87,–
"O=C(NC1CCc2ccc(C(=O)N3CCC4(CCN(c5ccncc5)CC4)C3)cc21)c1ccccc1Cl (stereo not drawn) [Example H-05, 2-chloro-N-[6-(8-pyridin-4-yl-3,8-diazaspiro[4.5]decane-3-carbonyl)-2,3-dihydro-1H-inden-1-yl]-benzamide]",–,–,% Inhibition (rat B1R) at 10 μM ([1]; 10 µM): 105%; % Inhibition (human B1R) at 10 μM [2]: 100%
"O=C(NC1CCc2ccc(C(=O)N3CCC4(CC3)CCN(c3ccncc3)CC4)cc21)C(c1ccccc1)c1ccccc1Cl (stereo not drawn) [Ind_CC-009, 2-(2-chlorophenyl)-2-phenyl-N-[6-(9-pyridin-4-yl-3,9-diazaspiro[5.5]undecane-3-carbonyl)-2,3-dihydro-1H-inden-1-yl]-acetamide]",99,87,–
"CC1(C)CC(NC(=O)c2ccc(F)cc2Cl)c2cc(C(=O)N3CCC4(CC3)CCN(c3ccncc3)CC4)ccc21 (stereo not drawn) [IND_CC-276, 2-Chloro-N-[3,3-dimethyl-6-(3-pyridin-4-yl-3,9-diazaspiro[5.5]undecane-9-carbonyl)-1,2-dihydro-inden-1-yl]-4-fluoro-benzamide]",107,100,–
"O=C(NC1CCc2ccc(C(=O)N3CCC4(CC3)CCN(c3ccc(C(F)(F)F)cc3)CC4)cc21)c1cccc(Cl)c1Cl (stereo not drawn) [IND_CC-281, 2,3-Dichloro-N-[6-[9-[4-(trifluoromethyl)-phenyl]-3,9-diazaspiro[5.5]undecane-3-carbonyl]-2,3-dihydro-1H-inden-1-yl]-benzamide]",105,84,–
"CC1(C)CC(NC(=O)c2cc(C(F)(F)F)ccc2Cl)c2cc(C(=O)N3CCC4(CC3)CCN(c3ccncc3)CC4)ccc21 (stereo not drawn) [IND_CC-250, 2-Chloro-N-[3,3-dimethyl-6-(3-pyridin-4-yl-3,9-diazaspiro[5.5]undecane-9-carbonyl)-1,2-dihydro-inden-1-yl]-5-(trifluoromethyl)-benzamide]",100,94,–
"O=C(c1ccc2c(c1)C(NS(=O)(=O)Cc1ccccc1C(F)(F)F)CC2)N1CCC2(CC1)CCN(c1ccncc1)CC2 (stereo not drawn) [IND_CC-236, N-[6-(9-Pyridin-4-yl-3,9-diazaspiro[5.5]undecane-3-carbonyl)-2,3-dihydro-1H-inden-1-yl]-1-[2-(trifluoromethyl)-phenyl]-methanesulfonic acid amide]",96,98,–
CN(C(=O)NCc1ccccc1Cl)C1CCc2ccc(C(=O)N3CCC4(CC3)CCN(c3ccncc3)CC4)cc21 (stereo not drawn) [Ind_CC-023],–,–,% Inhibition (rat B1R) at 10 μM [1]: 93%; % Inhibition (human B1R) at 10 μM [2]: 98%
"CN(C(=O)c1ccccc1Cl)C1CCc2ccc(C(=O)N3CCC4(CC3)CCN(c3ccncc3)CC4)cc21 (stereo not drawn) [IND_CC-272, 2-Chloro-N-methyl-N-[6-(9-pyridin-4-yl-3,9-diazaspiro[5.5]undecane-3-carbonyl)-2,3-dihydro-1H-inden-1-yl]-benzamide]",–,–,% Inhibition (rat B1R) at 10 μM ([1]; 10 µM): 107%; % Inhibition (human B1R) at 10 μM ([2]; 10 µM): 99%
"COc1ccc(C(=O)NC2CCc3ccc(C(=O)N4CCC5(CCN(c6ccncc6)CC5)C4)cc32)c(Cl)c1 (stereo not drawn) [IND_CC-247, 2-Chloro-4-methoxy-N-[6-(8-pyridin-4-yl-2,8-diazaspiro[4.5]decane-2-carbonyl)-2,3-dihydro-1H-inden-1-yl]-benzamide]",102,99,–
"O=C(NC1CCc2ccc(C(=O)N3CCC4(CCN(c5ccncc5)CC4)C3)cc21)c1ccc(F)cc1Cl (stereo not drawn) [IND_CC-277, 2-Chloro-4-fluoro-N-[6-(8-pyridin-4-yl-2,8-diazaspiro[4.5]decane-2-carbonyl)-2,3-dihydro-1H-inden-1-yl]-benzamide]",105,100,–
O=C(NC1CCc2ccc(C(=O)N3CCC4(CCC(Oc5ccncc5)CC4)CC3)cc21)c1ccccc1Cl (stereo not drawn) [Example H-08],100,71,–
"O=C(NC1CCc2ccc(C(=O)N3CCC4(CC3)CCN(c3ccncc3)CC4)cc21)c1ccccc1Cl (stereo not drawn) [Ind_CC-095, 2-chloro-N-[6-(9-pyridin-4-yl-3,9-diazaspiro[5.5]undecane-3-carbonyl)-2,3-dihydro-1H-inden-1-yl]-benzamide]",–,–,% Inhibition (rat B1R) at 10 μM ([1]; 10 µM): 99%; % Inhibition (human B1R) at 10 μM ([2]; 10 µM): 99%
"O=C(NC1CCc2ccc(C(=O)N3CCC4(CCN(c5ccncc5)CC4)C3)cc21)c1ccccn1 (stereo not drawn) [Ind_CC-084, N-[6-(8-pyridin-4-yl-3,8-diazaspiro[4.5]decane-3-carbonyl)-2,3-dihydro-1H-inden-1-yl]-pyridine-2-carboxylic acid amide]",100,99,–

# Second part, led by results:
inhibition at 10 µM [1] [%],inhibition at 10 µM [2] [%],SMILES,also measured
107,100,"O=C(NC1CCc2ccc(C(=O)N3CCC4(CCN(c5ccncc5)CC4)C3)cc21)c1cccc(Cl)c1Cl (stereo not drawn) [IND_CC-284, 2,3-Dichloro-N-[6-(8-pyridin-4-yl-2,8-diazaspiro[4.5]decane-2-carbonyl)-2,3-dihydro-1H-inden-1-yl]-benzamide]",–
101,82,"COc1ccc(C(=O)N[C@@H]2CCc3ccc(C(=O)N4CCC5(CC4)CCN(c4ccncc4)C5)cc32)c(Cl)c1 [Example H-60, 2-Chloro-4-methoxy-N-[(1R)-6-(3-pyridin-4-yl-3,8-diazaspiro[4.5]decane-8-carbonyl)-2,3-dihydro-1H-inden-1-yl]-benzamide]",–
102,33,"O=C(NC1CCc2ccc(C(=O)N3CCC4(CCN(Cc5ccncc5)CC4)CC3)cc21)c1sccc1Cl (stereo not drawn) [Ind_CC-104, 3-chloro-N-[6-[9-(pyridin-4-yl-methyl)-3,9-diazaspiro[5.5]undecane-3-carbonyl]-2,3-dihydro-1H-inden-1-yl]-thiophene-2-carboxylic acid amide]",–
102,100,"CN(C(=O)c1sccc1Cl)C1CCc2ccc(C(=O)N3CCC4(CC3)CCN(c3ccncc3)CC4)cc21 (stereo not drawn) [Ind_CC-016, 3-chloro-N-methyl-N-[6-(9-pyridin-4-yl-3,9-diazaspiro[5.5]undecane-3-carbonyl)-2,3-dihydro-1H-inden-1-yl]-thiophene-2-carboxylic acid amide]",–
105,99,"Cc1cccc(C)c1C(=O)NC1CCc2ccc(C(=O)N3CCC4(CC3)CCN(c3ccncc3)CC4)cc21 (stereo not drawn) [IND_CC-294, 2,6-Dimethyl-N-[6-(9-pyridin-4-yl-3,9-diazaspiro[5.5]undecane-3-carbonyl)-2,3-dihydro-1H-inden-1-yl]-benzamide]",–
101,98,"O=C(NC1CCc2ccc(C(=O)N3CCC4(CC3)CCN(c3ccncc3)C4)cc21)c1sccc1Cl (stereo not drawn) [Ind_CC-042, 3-chloro-N-[6-(2-pyridin-4-yl-2,8-diazaspiro[4.5]decane-8-carbonyl)-2,3-dihydro-1H-inden-1-yl]-thiophene-2-carboxylic acid amide]",–
71,68,"COc1cc(C)c(C(=O)NC2CCc3ccc(C(=O)N4CCC5(CC4)CCN(c4ccncc4)CC5)cc32)c(C)c1 (stereo not drawn) [Ind_CC-013, 4-methoxy-2,6-dimethyl-N-[6-(9-pyridin-4-yl-3,9-diazaspiro[5.5]undecane-3-carbonyl)-2,3-dihydro-1H-inden-1-yl]-benzamide]",–
